Test results taken from patent US8398759B2, “Environmental friendly anti-microbial adhesion agents for anti-fouling paints and anti-fouling paints containing them” (Biopaint S.R.L., priority 2008, dated 2013).

Experiments:
Type in all cases: cell-based
[1] = tested on: mixed populations of biofilmogenic sea bacteria (M1, T1-T5, F1); experiment: Bio-film formation (OD570) in microplates painted with supplemented anti-fouling paints; settings: 50 g of agent per kg of paint (E50 FIG. 8; V50 FIG. 9); M1, T1 and T5 populations
Method: (§1) The effect of the anti-microbial-adhesion agent of the invention on microbial adhesion and growth has been estimated by using mixed populations of biofilmogenic sea bacteria isolated from the Tyrrhenian Sea (M1), the Adriatic Sea (T1-T5) and an exhausted aquarium filter (F1).
The effectiveness of paints supplemented with the anti-microbial-adhesion agents of the invention in inhibiting the adherent growth of the sea bacteria used in the previous tests was assessed. The formation of a bio-film (OD570) was estimated by the microplate (24 wells) spectrophotometric assay described above. […]
Parallel assays were carried out by using microplates painted with a commercial anti-fouling product (Veneziani Raffaello bianca racing) and non-painted microplates. […]
The paints to be tested were applied only onto the side surface (corresponding to approximately 8.8 cm^2), avoiding to paint the bottom of the wells. […] The plates were inoculated with a cell suspension at an optical density (measured at 600 nm) of 0.5 absorbance units, kept under static incubation, in the dark, for 5 days at 20° C. 5 Days later, the microplates were drained and the growth of the plankton population was determined by a spectrophotometric assessment of the increase in absorbance of the incubation medium. The detection and quantification of a microbial biofilm formation was performed by a spectrophotometric assay. […]

[2] = tested on: mixed populations of biofilmogenic sea bacteria (M1, T1-T5, F1); experiment: Bio-film formation (crystal violet, OD570) in 24-well microplates, compounds in the free form
Method: as §1
The tests with the compounds in the free form were carried out by using: • eugenol in a concentration in the range from 0.5 to 4 g/l, solubilized in an organic solvent (methanol); • vanillin in a concentration in the range from 0.1 to 5 g/l; • benzaldehyde derivatives in a concentration of 2 g/l.
The formation of the bio-film was assessed, in an indirect way, by measuring the amount of crystal violet retained by the cells grown adherently.
The tests were performed in 24-well microplates inoculated with sea bacteria from bio-films of cultures grown under static conditions for 2 weeks. The effect of the compounds was determined by culturing the microorganisms (starting OD600=0.5) in synthetic sea water (Tropic Marin Sea Salt; 33 g/l) supplemented with yeast extract (3 g/l) and fungal peptone (5 g/l). After the inoculation, the plates were incubated at 20° C. for 5 days before assessing the formation of a bio-film (OD570) and the growth of plankton (OD600). The bio-film was estimated after staining with crystal violet.
The inhibition of adhesion experiments were carried out in 24-well microplates by using eugenol concentrations comprised between 0.5 and 4 g/l. The eugenol stock solution was obtained by melting 2 ml of the compound into 3 ml of methanol and 5 ml of a 10 M NaOH solution. The control plates were set up by adding the same volume of hydroalcoholic solution without eugenol. The results shown in FIG. 1 were obtained by using the M1 population. The tests were subsequently repeated with all 7 populations, using an eugenol concentration of 0.5 g/l.

[3] = tested on: plankton growth of sea bacteria populations M1, T1 and T5; experiment: Plankton growth (OD600) in microplates painted with vanillin-supplemented paints; settings: paints V50, V100, V200; three populations (FIG. 10)
Method: The paints to be tested were applied only onto the side surface (corresponding to approximately 8.8 cm^2), avoiding to paint the bottom of the wells. The plates, after being painted, were maintained for 2 days at 20° C., in a dry and ventilated environment, before being used for the adhesion assay. The plates were inoculated with a cell suspension at an optical density (measured at 600 nm) of 0.5 absorbance units, kept under static incubation, in the dark, for 5 days at 20° C. 5 Days later, the microplates were drained and the growth of the plankton population was determined by a spectrophotometric assessment of the increase in absorbance of the incubation medium. The detection and quantification of a microbial biofilm formation was performed by a spectrophotometric assay. The biocide release rate under static conditions was calculated by measuring, through high performance liquid chromatography (HPLC), the increases in time of the biocide concentration in the liquid medium. […]
In FIG. 10, the increases in absorbance (OD600) are expressed as relative values compared to non-treated samples (not painted).

Row | SMILES | reduced adherent growth of sea bacteria compared to the commercial product [1] | persistence of the inhibition effect on adhesion ([2]; M1 population, 10 days of incubation (FIG. 4)) | concentration at which adhesion of microorganisms to solid surfaces is inhibited ([2]; vanillin tested at 0.1 to 5 g/l, free form, T1, M1, T2, T1-T5, F1 populations (FIG. 3a-5)) | effect of vanillin release on plankton growth (OD600 relative to non-painted samples) [3] | reduction in the bio-film formation ([2]; eugenol 0.5 g/l, free form, 5 days at 20° C., all populations except T3 and F1 (FIG. 2)) | inhibition at 500 µg/mL ([2]; eugenol 0.5 g/l, free form, F1 population (FIG. 2)) | inhibition at 500 µg/mL ([2]; eugenol 0.5 g/l, free form, T3 population (FIG. 2))
1 | COc1cc(C=O)ccc1O [vanillin] | 1.5-15.8 fold | persists even after 10 days of incubation | above 1 g/l | reduced effect on the plankton growth |  |  | 
2 | C=CCc1ccc(O)c(OC)c1 [eugenol] | 1.2-3.2 fold |  |  |  | about 50% | ~60% | ~15%
